Some results are limits rather than exact numbers.

For the test, the target named is T1, H723R-pendrin (Homo sapiens, UniProt O43511, H723R).
T1 construct: expressed in transfected cells; host or cells: PANC-1
T1 sequence (O43511 1-780 H723R): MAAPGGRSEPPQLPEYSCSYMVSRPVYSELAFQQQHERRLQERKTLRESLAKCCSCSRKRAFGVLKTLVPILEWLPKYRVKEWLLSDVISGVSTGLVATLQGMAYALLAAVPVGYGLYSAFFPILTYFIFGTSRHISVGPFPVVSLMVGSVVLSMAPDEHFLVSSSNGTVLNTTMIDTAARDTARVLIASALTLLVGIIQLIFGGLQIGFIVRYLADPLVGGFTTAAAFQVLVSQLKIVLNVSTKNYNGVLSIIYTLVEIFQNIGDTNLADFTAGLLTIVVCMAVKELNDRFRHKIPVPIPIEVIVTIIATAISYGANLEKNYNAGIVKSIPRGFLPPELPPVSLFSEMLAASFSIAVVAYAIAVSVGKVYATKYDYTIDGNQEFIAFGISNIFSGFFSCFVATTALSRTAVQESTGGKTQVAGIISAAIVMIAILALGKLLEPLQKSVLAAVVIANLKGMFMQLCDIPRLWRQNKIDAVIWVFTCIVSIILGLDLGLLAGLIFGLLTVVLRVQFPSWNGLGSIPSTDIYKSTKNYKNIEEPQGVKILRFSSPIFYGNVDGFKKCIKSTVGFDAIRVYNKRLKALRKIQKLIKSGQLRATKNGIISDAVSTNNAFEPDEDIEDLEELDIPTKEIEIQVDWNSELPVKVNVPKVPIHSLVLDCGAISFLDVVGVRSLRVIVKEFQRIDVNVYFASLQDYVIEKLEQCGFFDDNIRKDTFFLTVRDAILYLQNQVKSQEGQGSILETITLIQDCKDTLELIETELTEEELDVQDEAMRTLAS
Kind of test: YFP fluorescence quenching assay (Cl−/I− exchange activity of pendrin). The test is classed as cell-based. Conditions: PANC-1 cells stably expressing human H723R-pendrin and YFP-F46L/H148Q/I152L; compound incubation 20-24 hours; iodide influx. The text has this: Halide sensor YFP F46L/H148Q/I152L is quenched by halide ion like Iodide. When such YFP is expressed in a cell, it expresses in the cytoplasm.
To measure H723R-PDS activity, PANC-1 cells were stably transfected with halide sensors YFP-F46L/H148Q/I152L and H723R-PDS which has problems with membrane trafficking due to misfolding.
If the cell-treated drug is a corrector for H723R-PDS, H723R-PDS will translocate normally to the plasma membrane.
At this time, when treated with a high-concentration iodide solution outside the cell, iodide enters the cell due to the Cl−/I− exchange activity of pendrin, and the fluorescence of the halide sensor YFP decreases.
PANC-1 cells were cultured in Dulbecco's Modified Eagle's Medium with 10% fetal bovine serum, 2 mM glutamine, 100 units/ml penicillin and 100 µg/ml streptomycin. For high-throughput screening, PANC-1 cells were stably transfected with human H723R-pendrin and halide sensor YFP-F46L/H148Q/I152L.
PANC-1 cells expressing human H723R-pendrin and YFP-F46L/H148Q/I152L were plated in 96-well microplates at a density of 2×10^4 cells per well and grown for 20-24 hours at 37° C. (90% humidity 5% CO2). Then these cells were treated with 50 μl growth medium containing test compounds and incubated for 20-24 hours. For YFP quenching assay, each well of the 96-well plate was washed 2 times with 200 μl of PBS, and it was filled with 50 μl of HEPES-buffered solution (140 mM NaCl, 5 mM KCl, 1 mM MgCl2, 1 mM CaCl2, 10 mM D-glucose, 10 mM HEPES; pH 7.4 with NaOH). After 10 minutes of incubation at 37° C., the 96-well plate was moved on the FLUOstar Omega Microplate Reader (BMG Labtech, Ortenberg, Germany) for a fluorescence assay. Each well was assayed individually for H723R-pendrin mediated I^− influx by recording fluorescence (495±15 nm excitation, 520±20 nm emission) every 400 ms for 1 second (baseline). Then, 50 μL of NaI-substituted HEPES-buffered solution (NaI replacing NaCl) was added using a liquid injector at 1 second and YFP fluorescence was recorded every 400 ms for 10 seconds. The initial iodide influx rate was determined from the initial slope of fluorescence by nonlinear regression, after the infusion of iodide.
It is indicated as EC50 with the following key: A=EC50 less than 5 uM; B=EC50 greater than 5 uM, but less than 10 uM; C=EC50 greater than 10 uM.
`NC1=C(c2nccc(-c3ccc(O)c(O)c3)n2)C(=O)CN1CC1CCCC1` [Compound 65] displayed an EC50 of 5 to 10 µM.
`COc1ccc(-c2cncc(C3=C(N)N(CC4CCC4)CC3=O)n2)cc1OC` [Compound 66]: the EC50 was 5 to 10 µM.
With `NC1=C(c2cncc(-c3ccc(O)c(OC4CCC4)c3)n2)C(=O)CN1CC1CCCC1` [Compound 67], the concentration giving a half-maximal response (EC50) was above 10 µM.
For the molecule `COc1ccc(-c2cc(C3=C(N)N(c4ccccc4Cl)CC3=O)ncn2)cc1OC` [Compound 68], the 50% effective concentration (EC50) was above 10 µM.
In turn, `NC1=C(c2cncc(-c3ccc(O)c(OC4COC4)c3)n2)C(=O)CN1CC1CCCC1` [Compound 70] came in with an EC50 below 5 µM.
Regarding `COc1cc(-c2cncc(C3=C(N)N(CC4CCCC4)CC3=O)c2)ccc1O` [Compound 71], the EC50 was above 10 µM.
To `NC1=C(c2cc(-c3ccc(O)c(O)c3)ncn2)C(=O)CN1c1ccccc1Cl` [Compound 72] belongs above 10 µM.
In turn, `NC1=C(c2nccc(-c3ccc(O)c(O)c3)n2)C(=O)CN1c1ccccc1F` [Compound 74] yielded an EC50 above 10 µM.
Regarding `COc1ccc(-c2cccc(C3=C(N)N(c4ccccc4Cl)CC3=O)n2)cc1OC` [Compound 75], the EC50 was above 10 µM.
Consider `NC1=C(c2cccc(-c3ccc(O)c(O)c3)n2)C(=O)CN1c1ccccc1Cl` [Compound 76], for which the EC50 is above 10 µM.
`COc1ccc(-c2nccc(C3=C(N)N(CC4CCCC4)CC3=O)n2)cc1OC` [Compound 77] registered an EC50 above 10 µM.
`NC1=C(c2cncc(-c3ccc(O)c(O)c3)n2)C(=O)CN1c1ccccc1F` [Compound 78] showed an EC50 below 5 µM.
To `NC1=C(c2ccnc(-c3ccc(O)c(O)c3)n2)C(=O)CN1CC1CCCC1` [Compound 79] belongs below 5 µM; to `COc1ccc(-c2cccc(C3=C(N)N(CC4CCCC4)CC3=O)n2)cc1OC` [Compound 80], above 10 µM; to `NC1=C(c2cccc(-c3ccc(O)c(O)c3)n2)C(=O)CN1CC1CCCC1` [Compound 81], below 5 µM.
For `COc1ccc(-c2ccnc(C3=C(N)N(CC4CCNC4)CC3=O)n2)cc1OC` (centres unmarked) [Compound 82] the value was above 10 µM.
Turning to `NC1=C(c2nccc(-c3ccc(O)c(O)c3)n2)C(=O)CN1CC1CCNC1` (centres unmarked) [Compound 83], the EC50 was above 10 µM.
In turn, `COc1ccc(-c2ccnc(C3=C(N)N(CC4CCOC4)CC3=O)n2)cc1OC` (centres unmarked) [Compound 84] yielded an EC50 above 10 µM.
`COc1ccc(-c2cccc(C3=C(N)N(CC4CCNC4)CC3=O)n2)cc1OC` (centres unmarked) [Compound 85] registered an EC50 above 10 µM.
Consider `NC1=C(c2cccc(-c3ccc(O)c(O)c3)n2)C(=O)CN1CC1CCNC1` (centres unmarked) [Compound 86], for which the EC50 is above 10 µM.
With `COc1ccc(-c2cccc(C3=C(N)N(CC4CCOC4)CC3=O)n2)cc1OC` (centres unmarked) [Compound 87], the EC50 was 5 to 10 µM.
In turn, `COc1ccc(-c2cncc(C3=C(N)N(CCC(F)(F)F)CC3=O)c2)cc1OC` [Compound 88] had an EC50 above 10 µM.
Take `NC1=C(c2cncc(-c3ccc(O)c(OC4CNC4)c3)n2)C(=O)CN1CC1CCCC1` [Compound 89]: the EC50 is above 10 µM.
With `COc1cc(-c2cncc(C3=C(N)N(CC4CCNC4)CC3=O)c2)ccc1O` (centres unmarked) [Compound 90], the EC50 is above 10 µM.
Consider `COc1cc(-c2cncc(C3=C(N)N(CC4CCOC4)CC3=O)c2)ccc1O` (centres unmarked) [Compound 91], for which the EC50 is above 10 µM.
The molecule `NC1=C(c2cccc(-c3ccc(O)c(O)c3)n2)C(=O)CN1c1ccccc1F` [Compound 92] gave an EC50 of 5 to 10 µM.
To `COc1ccc(-c2cccc(C3=C(N)N(CCC(F)(F)F)CC3=O)n2)cc1OC` [Compound 93] belongs above 10 µM.
For `NC1=C(c2cccc(-c3ccc(O)c(O)c3)n2)C(=O)CN1CCC(F)(F)F` [Compound 94] the value was above 10 µM; for `NC1=C(c2cncc(-c3ccc(O)c(O)c3)c2)C(=O)CN1CCC(F)(F)F` [Compound 95], above 10 µM.
Take `COc1ccc(-c2ccnc(C3=C(N)N(CCC(F)(F)F)CC3=O)n2)cc1OC` [Compound 96]: the EC50 is above 10 µM.
For `NC1=C(c2nccc(-c3ccc(O)c(O)c3)n2)C(=O)CN1CCC(F)(F)F` [Compound 97], the EC50 is above 10 µM.
To `COc1ccc(-c2nccc(C3=C(N)N(c4ccccc4Cl)CC3=O)n2)cc1OC` [Compound 98] belongs above 10 µM; to `COCCOc1cc(-c2cncc(C3=C(N)N(CC4CCCC4)CC3=O)n2)ccc1O` [Compound 99], below 5 µM.
Molecule `COc1ccc(-c2cc(C3=C(N)N(c4ccccc4F)CC3=O)ccn2)cc1OC` [Compound 100] registered an EC50 above 10 µM.
In turn, `NC1=C(c2ccnc(-c3ccc(O)c(O)c3)c2)C(=O)CN1c1ccccc1F` [Compound 101] had an EC50 above 10 µM.
Molecule `NC1=C(c2ccnc(-c3ccc(O)c(O)c3)c2)C(=O)CN1c1ccccc1Cl` [Compound 102] came in with an EC50 above 10 µM.
As to `NC1=C(c2cncc(-c3ccc(O)c(OCCO)c3)n2)C(=O)CN1CC1CCCC1` [Compound 103], the EC50 was above 10 µM.
Take `NC1=C(c2cncc(-c3ccc(O)c(O)c3)n2)C(=O)CN1CC1CC(F)(F)C1` [Compound 104]: the half-maximal effective concentration (EC50) lay within 5 to 10 µM.
Turning to `COc1ccc(-c2cc(C3=C(N)N(c4ccccc4Cl)CC3=O)ccn2)cc1OC` [Compound 106], the EC50 was above 10 µM.
As to `CNCCOc1cc(-c2cncc(C3=C(N)N(CC4CCCC4)CC3=O)n2)ccc1O` [Compound 107], the EC50 is below 5 µM.
`COc1ccc(-c2cc(C3=C(N)N(CC4CCCC4)CC3=O)ccn2)cc1OC` [Compound 108] yielded an EC50 above 10 µM.
Regarding `NC1=C(c2ccnc(-c3ccc(O)c(O)c3)c2)C(=O)CN1CC1CCCC1` [Compound 109], the EC50 is above 10 µM.
`COc1cc(-c2ccnc(C3=C(N)N(CC4CCCC4)CC3=O)n2)ccc1O` [Compound 110] yielded an EC50 below 5 µM.
`NC1=C(c2cncc(-c3ccc(O)c(OC4CC(O)C4)c3)n2)C(=O)CN1CC1CCCC1` (centres unmarked) [Compound 111]: the EC50 is below 5 µM.
`NC1=C(c2cncc(-c3ccc(O)c(OC4COC4)c3)n2)C(=O)CN1CC1CCC1` [Compound 112] came in with an EC50 of 5 to 10 µM.
As to `NC1=C(c2cncc(-c3ccc(O)c(OC4CC(N)C4)c3)n2)C(=O)CN1CC1CCCC1` (centres unmarked) [Compound 113], the EC50 was above 10 µM.
On to `NC1=C(c2ccnc(-c3ccc(O)c(O)c3)n2)C(=O)CN1c1ccccc1Cl` [Compound 114], for which the EC50 is below 5 µM.
On to `COCOc1ccc(-c2cncc(C3=C(N)N(C4CCCC4)CC3=O)n2)cc1OC1COC1` [Compound 115], for which the EC50 is above 10 µM.
With `COCOc1ccc(-c2cncc(C3=C(N)N(CC4CCCC4)CC3=O)n2)cc1OC` [Compound 116], the EC50 is below 5 µM.
`NC1=C(c2cncc(-c3ccc(O)c(OC4COC4)c3)n2)C(=O)CN1C1CCCC1` [Compound 117] yielded an EC50 of 5 to 10 µM.
For `COC1CC(Oc2cc(-c3cncc(C4=C(N)N(CC5CCCC5)CC4=O)n3)ccc2O)C1` (centres unmarked) [Compound 118] the value was above 10 µM; for `NC1=C(c2cncc(-c3ccc(O)c(O)c3)n2)C(=O)CN1c1cccnc1Cl` [Compound 119], above 10 µM; for `NC1=C(c2cncc(-c3ccc(O)c(O)c3)n2)C(=O)CN1c1ncncc1Cl` [Compound 120], above 10 µM.

Source of the values: patent publication US20250340537A1, “PHARMACEUTICALLY ACTIVE COMPOUNDS, COMPOSITIONS, AND METHODS FOR MODULATING PENDRIN” (ARBORMED Co., Ltd., priority 2022, published 2025).
